Here are results for 22 compounds from ChEMBL document CHEMBL2375213, “Synthesis and anticancer activity of novel spiro-isoxazoline and spiro-isoxazolidine derivatives of α-santonin” (Eur J Med Chem, 2013).

Holding throughout (type): functional, cell-based
For assay [1], the system named is A549. Kind of assay: Antiproliferative activity against human A549 cells after 48 hrs by sulforhodamine B assay. The settings on record: A549, 48 h. A general note: Sulforhodamine B stains cellular protein and so reports cell mass.
The test system of assay [2] is PC-3. The assay can be described thus: Antiproliferative activity against human PC3 cells after 48 hrs by sulforhodamine B assay. The settings on record: PC-3, 48 h.
Assay [3] relates to MCF7. Kind of assay: Antiproliferative activity against human MCF7 cells after 48 hrs by sulforhodamine B assay. The settings on record: MCF7, 48 h.
In assay [4] the test system is THP-1. The assay can be described thus: Antiproliferative activity against human THP1 cells after 48 hrs by sulforhodamine B assay. The settings on record: THP-1, 48 h.
Assay [5] has as its system HCT-116. The assay can be described thus: Antiproliferative activity against human HCT116 cells after 48 hrs by sulforhodamine B assay. The settings on record: HCT-116, 48 h.
For assay [6], the system named is HEp-2. Kind of assay: Antiproliferative activity against human Hep2 cells after 48 hrs by sulforhodamine B assay. To be noted: HEp-2, 48 h.

Molecules are shown by their SMILES.

As usually defined, the IC50 is the point on the concentration scale where inhibition reaches its midpoint. A low value points to greater potency in that assay. For the compound `CC1=C2[C@H]3OC(=O)C4(CC(c5cc(Cl)ccc5Cl)=NO4)[C@@H]3CC[C@@]2(C)C=CC1=O` (stereo partly specified), the IC50 came to 100 µM in assay [1]; 100 µM in assay [2]; 39 µM in assay [3]; 100 µM in assay [4]; 61 µM in assay [5]; 100 µM in assay [6].
With `COc1ccc([C@H]2CC3(ON2c2ccccc2)C(=O)O[C@@H]2C4=C(C)C(=O)C=C[C@]4(C)CC[C@H]23)cc1Br` (stereo partly specified), the IC50 was found to be 8.5 µM in assay [1]; 0.1 µM in assay [2]; 100 µM in assay [3]; 100 µM in assay [4]; 100 µM in assay [5]; 100 µM in assay [6].
Turning to `CO[C@@]12[C@H](COC(N)=O)C3=C(C(=O)C(C)=C(N)C3=O)N1C[C@@H]1N[C@@H]12` [MITOMYCIN], in assay [5], the IC50 was 0.5 µM.
Turning to `CC1=C2[C@H]3OC(=O)C4(C[C@@H](c5ccc(F)c(Br)c5)N(c5ccccc5)O4)[C@@H]3CC[C@@]2(C)C=CC1=O` (stereo partly specified), the IC50 stood at 100 µM in assay [1]; 0.8 µM in assay [2]; 0.7 µM in assay [3]; 2.7 µM in assay [4]; 4.3 µM in assay [5]; 100 µM in assay [6].
With `CC1=C2[C@H]3OC(=O)C4(CC(c5cc(F)cc(F)c5)=NO4)[C@@H]3CC[C@@]2(C)C=CC1=O` (stereo partly specified), the IC50 came out at 8.2 µM in assay [1]; 2.2 µM in assay [2]; 0.5 µM in assay [3]; 0.4 µM in assay [4]; 100 µM in assay [5]; 100 µM in assay [6].
With `CC1=C2[C@H]3OC(=O)C4(C[C@@H](c5cccc([N+](=O)[O-])c5)N(c5ccccc5)O4)[C@@H]3CC[C@@]2(C)C=CC1=O` (stereo partly specified), the IC50 stood at 10 µM in assay [1]; 0.9 µM in assay [2]; 23 µM in assay [3]; 42 µM in assay [4]; 48 µM in assay [5]; 100 µM in assay [6].
Consider `COc1ccc(C2=NOC3(C2)C(=O)O[C@@H]2C4=C(C)C(=O)C=C[C@]4(C)CC[C@H]23)cc1Br` (stereo partly specified), for which the IC50 in assay [1] turned out to be 100 µM; in assay [2], 100 µM; in assay [3], 100 µM; in assay [4] it was 21 µM; in assay [5], 50 µM; in assay [6] it was 100 µM.
Consider `CC1=C2[C@H]3OC(=O)C4(CC(c5ccccc5)=NO4)[C@@H]3CC[C@@]2(C)C=CC1=O` (stereo partly specified), for which the IC50 came to 100 µM in assay [1]; 78 µM in assay [2]; 100 µM in assay [3]; 100 µM in assay [4]; 100 µM in assay [5]; 100 µM in assay [6].
As to `CC1=C2[C@H]3OC(=O)C4(CC(c5ccc(Cl)cc5Cl)=NO4)[C@@H]3CC[C@@]2(C)C=CC1=O` (stereo partly specified), the IC50 in assay [1] worked out at 13 µM; in assay [2], 26 µM; in assay [3], 95 µM; in assay [4], 35 µM; in assay [5] it was 29 µM; in assay [6], 29 µM.
With `CC1=C2[C@H]3OC(=O)C4(CC(c5ccc(O)cc5)=NO4)[C@@H]3CC[C@@]2(C)C=CC1=O` (stereo partly specified), the IC50 in assay [1] turned out to be 3.8 µM; in assay [2], 55 µM; in assay [3] it was 100 µM; in assay [4], 100 µM; in assay [5] it was 8.2 µM; in assay [6] it was 40 µM.
`CC1=C2[C@H]3OC(=O)C4(CC(c5ccc6ccccc6c5)=NO4)[C@@H]3CC[C@@]2(C)C=CC1=O` (stereo partly specified): the IC50 in assay [1] worked out at 2.9 µM; in assay [2] it was 0.6 µM; in assay [3] it was 30 µM; in assay [4] it was 0.4 µM; in assay [5] it was 100 µM; in assay [6], 100 µM.
For the compound `COc1ccc(C2=NOC3(C2)C(=O)O[C@@H]2C4=C(C)C(=O)C=C[C@]4(C)CC[C@H]23)cc1` (stereo partly specified), the IC50 in assay [1] turned out to be 0.2 µM; in assay [2], 100 µM; in assay [3] it was 0.02 µM; in assay [4] it was 7.9 µM; in assay [5] it was 52 µM; in assay [6], 100 µM.
With `CC1=C2[C@H]3OC(=O)C4(CC(c5c6ccccc6cc6ccccc56)=NO4)[C@@H]3CC[C@@]2(C)C=CC1=O` (stereo partly specified), the IC50 in assay [1] was determined as 45 µM; in assay [2] it was 0.3 µM; in assay [3], 0.2 µM; in assay [4], 0.8 µM; in assay [5] it was 45 µM; in assay [6], 50 µM.
Consider `CC1=C2[C@H]3OC(=O)C4(C[C@H](c5ccc(F)c(Br)c5)N(c5ccccc5)O4)[C@@H]3CC[C@@]2(C)C=CC1=O` (stereo partly specified), for which the IC50 in assay [1] came out at 19 µM; in assay [2] it was 0.9 µM; in assay [3], 0.2 µM; in assay [4], 2.3 µM; in assay [5], 100 µM; in assay [6], 3.7 µM.
On to `CC1=C2[C@H]3OC(=O)C4(CC(c5cccc(F)c5)=NO4)[C@@H]3CC[C@@]2(C)C=CC1=O` (stereo partly specified), for which the IC50 came to 0.7 µM in assay [1]; 100 µM in assay [2]; 0.4 µM in assay [3]; 100 µM in assay [4]; 100 µM in assay [5]; 100 µM in assay [6].
On to `COc1cccc2c1C(=O)c1c(O)c3c(c(O)c1C2=O)C[C@@](O)(C(=O)CO)C[C@@H]3O[C@H]1C[C@H](N)[C@H](O)[C@H](C)O1` [DOXORUBICIN], for which the figures for the IC50 in assay [2] and in assay [3] were 6 µM and 0.5 µM, respectively.
`CC1=C2[C@H]3OC(=O)C4(CC(c5ccc(Br)cc5)=NO4)[C@@H]3CC[C@@]2(C)C=CC1=O` (stereo partly specified): the IC50 in assay [1] was 58 µM; in assay [2], 100 µM; in assay [3] it was 0.1 µM; in assay [4], 100 µM; in assay [5], 100 µM; in assay [6], 100 µM.
`O=c1[nH]cc(F)c(=O)[nH]1` [FLUOROURACIL]: the IC50 in assay [1] amounted to 4.9 µM; in assay [2], 2.2 µM; in assay [4] it was 1 µM; in assay [6], 4.5 µM.
Regarding `CC1=C2[C@H]3OC(=O)C4(CC(c5ccc(Br)c(F)c5)=NO4)[C@@H]3CC[C@@]2(C)C=CC1=O` (stereo partly specified), the IC50 in assay [1] stood at 3.1 µM; in assay [2], 2 µM; in assay [3], 0.9 µM; in assay [4] it was 0.6 µM; in assay [5], 15 µM; in assay [6], 33 µM.
Regarding `CC1=C2[C@H]3OC(=O)C4(CC(c5c(Cl)cccc5Cl)=NO4)[C@@H]3CC[C@@]2(C)C=CC1=O` (stereo partly specified), the IC50 in assay [1] worked out at 100 µM; in assay [2], 100 µM; in assay [3] it was 27 µM; in assay [4], 100 µM; in assay [5], 10 µM; in assay [6], 15 µM.
For the compound `CC1=C2[C@H]3OC(=O)C4(C[C@H](c5cc(F)cc(F)c5)N(c5ccccc5)O4)[C@@H]3CC[C@@]2(C)C=CC1=O` (stereo partly specified), the IC50 in assay [1] is 100 µM; in assay [2], 0.7 µM; in assay [3], 0.09 µM; in assay [4], 25 µM; in assay [5], 0.09 µM; in assay [6], 100 µM.
Regarding `CC1=C2[C@H]3OC(=O)C4(CC(c5ccc(F)cc5)=NO4)[C@@H]3CC[C@@]2(C)C=CC1=O` (stereo partly specified), the IC50 turned out to be 61 µM in assay [1]; 100 µM in assay [2]; 100 µM in assay [3]; 100 µM in assay [4]; 100 µM in assay [5]; 100 µM in assay [6].
